Here are results for 15 molecules from ChEMBL document CHEMBL5214922, “Melphalan: Recent insights on synthetic, analytical and medicinal aspects” (Eur J Med Chem, 2022).

Data set [1] concerns MCF7. Nature of the data set: Cytotoxicity against human MCF7 cells assessed as cell growth inhibition incubated for 48 hrs by AlamarBlue assay. It is filed as functional, cell-based. The note with it: MCF7, 48 h. A general note: Alamar Blue is a resazurin reagent that responds to reducing activity.
Data set [2] has as its system MC3T3-E1. Nature of the data set: Cytotoxicity against mouse MC3T3-E1 cells assessed as cell growth inhibition. It is filed as functional, cell-based.
The test system of data set [3] is U2OS. Briefly: Cytotoxicity against human U2OS cells assessed as cell growth inhibition. It is filed as functional, cell-based.
Data set [4] deals with SAOS-2. Nature of the data set: Cytotoxicity against human SAOS-2 cells assessed as cell growth inhibition. In kind it is functional, cell-based.
Data set [5] has as its system MCF7. Nature of the data set: Cytotoxicity against human MCF7 cells assessed as cell growth inhibition incubated for 24 hrs by MTT assay. In kind it is functional, cell-based. Conditions: MCF7, 24 h.
Data set [6] concerns MDA-MB-231. Nature of the data set: Cytotoxicity against human MDA-MB-231 cells assessed as reduction in cell viability at 15 uM incubated for 24 hrs by MTT assay relative to control. It is filed as functional. For orientation: Tetrazolium assays rely on reduction of a dye to a coloured formazan, in cell work by metabolically active cells.
The subject of data set [7] is K562. Briefly: Cytotoxicity against human K562 cells assessed as cell growth inhibition incubated for 24 hrs by MTT assay. It is filed as functional, cell-based. The note with it: K562, 24 h.
The nature of data set [8]: Plasma protein binding in human. It is filed as ADME.
Data set [9] is described as follows: Plasma protein binding in human assessed as unbound fraction. It is filed as ADME.
Data set [10] in a line: Plasma protein binding in human by ultrafiltration method. It is filed as ADME. Conditions: read-out: PPB (converted).
Data set [11] in a line: Biodistribution in mouse CCRF S-180 tumor cells xenografted in ICR mouse measured after 240 mins. The note with it: read-out: Drug uptake. In kind it is ADME, organism-based.
In data set [12] the test system is SK-OV-3. Briefly: Cytotoxicity against human SK-OV-3 cells assessed as inhibition of cell proliferation incubated for 24 hrs by MTT assay. In kind it is functional, cell-based. The note with it: SK-OV-3, 24 h.
In data set [13] the test system is H-EMC-SS. Briefly: Cytotoxicity against human H-EMC-SS cells assessed as cell growth inhibition incubated for 72 hrs by resazurin reduction method. In kind it is functional, cell-based.
For data set [14], the system named is SAOS-2. Briefly: Cytotoxicity against human SAOS-2 cells assessed as cell growth inhibition incubated for 72 hrs by resazurin reduction method. The note with it: SAOS-2, 72 h. It is filed as functional, cell-based.
The target in data set [15] is 72 kDa type IV collagenase (Homo sapiens, UniProt P08253). Nature of the data set: Prodrug conversion assessed as MMP-2 (unknown origin)-mediated drug release by measuring half life by HPLC analysis. It is filed as ADME.
72 kDa type IV collagenase, sequence (P08253 whole entry): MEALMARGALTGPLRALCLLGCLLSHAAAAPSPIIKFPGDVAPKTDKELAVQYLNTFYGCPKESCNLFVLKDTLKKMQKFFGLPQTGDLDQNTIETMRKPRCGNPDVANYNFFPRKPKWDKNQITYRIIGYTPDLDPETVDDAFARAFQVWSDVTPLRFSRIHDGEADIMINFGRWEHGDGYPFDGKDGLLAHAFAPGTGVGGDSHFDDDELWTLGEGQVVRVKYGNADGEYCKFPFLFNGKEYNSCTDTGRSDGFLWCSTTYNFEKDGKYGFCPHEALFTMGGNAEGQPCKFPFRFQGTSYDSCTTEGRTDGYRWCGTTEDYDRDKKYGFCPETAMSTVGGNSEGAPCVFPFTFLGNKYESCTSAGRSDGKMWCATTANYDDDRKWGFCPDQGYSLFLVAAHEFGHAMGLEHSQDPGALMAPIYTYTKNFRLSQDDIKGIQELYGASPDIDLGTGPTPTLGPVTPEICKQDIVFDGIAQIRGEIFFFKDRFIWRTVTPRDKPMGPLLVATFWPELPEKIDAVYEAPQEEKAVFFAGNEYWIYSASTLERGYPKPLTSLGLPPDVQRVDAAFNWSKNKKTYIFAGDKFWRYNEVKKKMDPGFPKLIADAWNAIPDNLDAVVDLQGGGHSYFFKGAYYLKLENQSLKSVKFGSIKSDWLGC
A short description of data set [16]: Prodrug conversion assessed as drug excretion measured after 6 days by HPLC analysis. It is filed as ADME. Conditions: 144 h; time 6 day.
The test system of data set [17] is MDA-MB-231. Briefly: Inhibition of DNA synthesis in human MDA-MB-231 cells at 15 uM incubated upto 72 hrs by [3H]thymidine incorporation assay relative to control. In kind it is functional. On the technique in general: Incorporation of labelled thymidine or its analogues reports DNA synthesis.
The subject of data set [18] is Lymphoma cell line. Nature of the data set: Cytotoxicity against patient-derived human lymphoma cells assessed as cell growth inhibition incubated for 72 hrs by FMCA assay. It is filed as functional, cell-based.
Data set [19] deals with Lymphoma cell line. Nature of the data set: Potency index, ratio of Melphalan IC50 to test compound IC50 for cytotoxicity against patient-derived human lymphoma cells assessed as cell growth inhibition incubated for 72 hrs by FMCA assay. It is filed as functional.
Data set [20] deals with HT-29. Nature of the data set: Cytotoxicity against human HT-29 cells assessed as cell growth inhibition measured after 24 hrs by MTT assay. In kind it is functional, cell-based. Conditions: HT-29, 24 h.
Data set [21] in a line: Biodistribution in mouse CCRF S-180 tumor cells xenografted in ICR mouse measured after 120 mins. Conditions: read-out: Drug uptake. In kind it is ADME, organism-based.
Data set [22] can be described thus: Retention time of the compound by HPLC analysis. In kind it is physicochemical.
The nature of data set [23]: Cytotoxicity against CHO cells assessed as cell growth inhibition incubated for 48 hrs by AlamarBlue assay. It is filed as toxicity, cell-based, Cricetulus griseus. The note with it: Chinese hamster.

Values after ≈ are worked out from the molar mass of the structure shown. Non-standard residues stand in square brackets, D forms with d. Residues, ends and D or L forms follow the SMILES beside them. ξ: configuration not given here. *: point of attachment. ξPhe(4-N(CH2CH2Cl)2) = NC(Cc1ccc(N(CCCl)CCCl)cc1)C(=O)O; X1 = O=P(O)(O)C(CN*)P(=O)(O)O

Broadly, the IC50 is the concentration that inhibits the measured activity by half. In general, inhibition refers to the relative decrease from the control value, in per cent.

Consider `C=C1C(=O)O[C@@H]2C3O[C@]3(C)CC/C=C(\C)CC[C@@H]12` (stereo partly drawn), for which the IC50 in data set [1] was greater than 20 µM.

With `N[C@@H](Cc1ccc(N(CCCl)CCCl)cc1)C(=O)O` [MELPHALAN], the IC50 is 0.68 µM in data set [2]; 0.68 µM in data set [3]; 0.68 µM in data set [4]; 77 µM in data set [5]; greater than 20 µM in [1]; 65.7 µM in data set [7]. In addition, in data set [6], the inhibition at 15 µM worked out at 40%. For the same molecule, the PPB in [8] worked out at 40 µg/mL. In addition, the “Cp(f)” value in data set [9] is 2500 ng/mL. In data set [10], the fraction unbound is 0.31.

Take `CN(C)c1ccc(/C=N\Nc2ccc(CN[C@@H](Cc3ccc(N(CCCl)CCCl)cc3)C(=O)O)cc2)cc1`: the tissue uptake at 4 h in [11] stood at 0.98 %ID/g.

Consider `CC1(C)CC(NC(=O)C(N)Cc2ccc(N(CCCl)CCCl)cc2)CC(C)(C)N1[O]` (stereo not drawn), for which, in data set [7], the IC50 stood at 36.3 µM.

For the molecule `NC1=NC2N=CC(CNc3ccc(C(=O)NCC(CCC(=O)NCC(=O)NCC(=O)NC(Cc4ccc(N(CCCl)CCCl)cc4)C(=O)O)C(=O)NCC(=O)NCC(=O)NC(Cc4ccccc4)C(=O)O)cc3)N=C2C(=O)N1` (stereo not drawn), the IC50 in data set [12] is 4.1 µg/mL (≈ 3.66 µM).

In the case of `COC(=O)C(Cc1ccc(N(CCCl)CCCl)cc1)NC(=O)c1ccc(-c2ccc(C(=N)NC(C)C)cc2)o1` (stereo not drawn), the IC50 in [5] was 23 µM.

For `C[N+](C)(C)CCCNC(=O)[C@@H](N)Cc1ccc(N(CCCl)CCCl)cc1`, the IC50 in data set [13] came to 14 µM; in data set [14], 37.5 µM.

In the case of `Nc1ccn([C@@H]2O[C@H](CO)[C@@H](O)[C@@H]2O)c(=O)n1` [CYTARABINE], the IC50 in [1] is greater than 20 µM.

Consider `CC(C)C[C@H](NC(=O)CNC(=O)[C@H](CC(C)C)NC(=O)[C@@H]1CCCN1C(=O)C(N)Cc1ccc(N(CCCl)CCCl)cc1)C(=O)N[C@@H](C)C(=O)NCC(=O)NCC(P(=O)(O)O)P(=O)(O)O` (stereo partly drawn) (H-[ξPhe(4-N(CH2CH2Cl)2)]PLGLAG-X1), for which, in data set [15], the t1/2 stood at 1.25 h. The Drug excretion in [16] is listed as 75%. In addition, the IC50 in data set [2], in data set [3] and in data set [4] was 0.79 µM each time.

Regarding `O=C(O)C(Cc1ccc(N(CCCl)CCCl)cc1)NCC(=O)N1CCCC1C(=O)O` (stereo not drawn), the values for the inhibition at 15 µM in data set [17] and in [6] were 30% and 55%, respectively.

For the molecule `CCOC(=O)[C@H](Cc1ccc(F)cc1)NC(=O)[C@@H](N)Cc1ccc(N(CCCl)CCCl)cc1` [MELPHALAN FLUFENAMIDE], the IC50 in data set [18] amounted to 0.011 µM. For the same molecule, in [19], the “Ratio IC50” value was 49.

Consider `CCOC(=O)CNC(=O)[C@H](Cc1ccc(N(CCCl)CCCl)cc1)NC(=O)[C@@H](N)[C@@H](C)CC`, for which the IC50 in data set [20] turned out to be 40 µM.

As for `O=C(O)CN(CCN(CC(=O)O)CC(=O)O)CCN(CC(=O)O)CC(=O)N[C@@H](Cc1ccc(N(CCCl)CCCl)cc1)C(=O)O`, in [21], the tissue uptake at 2 h came to 1.03 %ID/g. For the same molecule, the Retention_time in data set [22] was 10.72 min.

With `C/C1=C\CC[C@@]2(C)O[C@H]2[C@H]2OC(=O)C(CNc3ccn(C4OC(CO)[C@H](O)[C@@H]4O)c(=O)n3)[C@@H]2CC1` (stereo partly drawn), in data set [23], the IC50 at 48 h was 1.74 µM.

Take `C/C1=C\CC[C@@]2(C)O[C@H]2[C@H]2OC(=O)C(CNC(Cc3ccc(N(CCCl)CCCl)cc3)C(=O)O)[C@@H]2CC1` (stereo partly drawn): in data set [21], the tissue uptake at 2 h is 1.63 %ID/g. Moreover, in [22], the Retention_time was found to be 14.5 min.
